Biological target: MetAP-2 (Homo sapiens, UniProt P50579)
Test: MetAP-2 activity measurement (coupled enzymatic reactions, Met-Arg-Ser substrate, dianisidine detection at 450 nm)
Assay type: biochemical
Conditions: Inhibition of MetAP-2; read-out: IC50 enzyme
How it was run: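 Coupled continuous assay with Met-Arg-Ser tripeptide substrate: released methionine oxidised by L-amino acid oxidase to give H2O2, which peroxidase uses to oxidise dianisidine, followed at 450 nm. Activity taken as slope of absorbance versus time over the visually linear region; dianisidine extinction coefficient converts to mol Met per time.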

MetAP-2, sequence (P50579 whole entry, species assumed): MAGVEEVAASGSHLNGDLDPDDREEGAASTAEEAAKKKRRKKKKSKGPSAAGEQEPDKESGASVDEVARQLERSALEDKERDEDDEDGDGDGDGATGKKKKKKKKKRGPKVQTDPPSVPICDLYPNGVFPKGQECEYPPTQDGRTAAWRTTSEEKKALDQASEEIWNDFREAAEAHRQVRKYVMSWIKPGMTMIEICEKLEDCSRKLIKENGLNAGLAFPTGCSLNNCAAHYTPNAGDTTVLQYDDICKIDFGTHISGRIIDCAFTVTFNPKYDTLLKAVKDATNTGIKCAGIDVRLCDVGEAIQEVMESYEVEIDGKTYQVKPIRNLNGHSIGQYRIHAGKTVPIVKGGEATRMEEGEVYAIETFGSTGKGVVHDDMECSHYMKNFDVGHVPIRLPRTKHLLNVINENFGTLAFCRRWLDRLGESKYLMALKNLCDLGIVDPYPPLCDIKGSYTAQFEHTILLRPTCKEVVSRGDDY

Row | SMILES | IC50
1 | CC(=O)OC1(C(=O)NCc2cc(F)cc(Cl)c2)CCN(c2ccc3c(c2)CCC(=O)N3)C1=O (stereo not shown) [B91, 3-(3-Chloro-5-fluorobenzyl-carbamoyl)-2-oxo-1-(2-oxo-1,2,3,4-tetrahydroquinolin-6-yl)-pyrrolidin-3-yl acetate] | 1000 to 10000 nM
2 | O=C(NCc1cc(F)cc(Cl)c1)[C@@]1(O)CCN(c2cnc3[nH]cnc3c2)C1=O [B92, N-(3-Chloro-5-fluorobenzyl)-(S)-3-hydroxy-1-(3H-imidazo-[4,5-b]pyridin-6-yl)-2-oxo-pyrrolidine-3-carboxamide] | 10 to 1000 nM
3 | O=C(NCc1cc(F)cc(Cl)c1)[C@]1(O)CCN(c2cnc3[nH]cnc3c2)C1=O [B93, N-(3-Chloro-5-fluorobenzyl)-(R)-3-hydroxy-1-(3H-imidazo-[4,5-b]pyridin-6-yl)-2-oxo-pyrrolidine-3-carboxamide] | 1000 to 10000 nM
4 | CN(C)C(=O)c1cc2cc(N3CC[C@](O)(C(=O)NCc4cc(F)cc(Cl)c4)C3=O)ccc2[nH]1 [B95, N,N-Dimethyl-5-[(S)-3-(3-chloro-5-fluorobenzylcarbamoyl)-3-hydroxy-2-oxopyrrolidin-1-yl]-1H-indole-2-carboxamide] | 10 to 1000 nM
5 | CNC(=O)c1cc2cc(N3CC[C@](O)(C(=O)NCc4cc(F)cc(Cl)c4)C3=O)ccc2[nH]1 [B96, N-Methyl-5-[(S)-3-(3-chloro-5-fluorobenzylcarbamoyl)-3-hydroxy-2-oxopyrrolidin-1-yl]-1H-indole-2-carboxamide] | 10 to 1000 nM
6 | CC(C)NC(=O)c1cc2cc(N3CC[C@](O)(C(=O)NCc4cc(F)cc(Cl)c4)C3=O)ccc2[nH]1 [B97, N-Isopropyl-5-[(S)-3-(3-chloro-5-fluorobenzylcarbamoyl)-3-hydroxy-2-oxopyrrolidin-1-yl]-1H-indole-2-carboxamide] | 10 to 1000 nM
7 | COCCn1cc(N2CC[C@](O)(C(=O)NCc3cc(F)cc(Cl)c3)C2=O)cn1 [B99, N-(3-Chloro-5-fluorobenzyl)-(S)-3-hydroxy-1-[1-(2-methoxy-ethyl)-1H-pyrazol-4-yl]-2-oxo-pyrrolidine-3-carboxamide] | 10 to 1000 nM
8 | COCCn1cc(N2CC[C@@](O)(C(=O)NCc3cc(F)cc(Cl)c3)C2=O)cn1 [B100, N-(3-Chloro-5-fluorobenzyl)-(R)-3-hydroxy-1-[1-(2-methoxy-ethyl)-1H-pyrazol-4-yl]-2-oxo-pyrrolidine-3-carboxamide] | > 10000 nM
9 | NS(=O)(=O)c1ccc(N2CC[C@](O)(C(=O)NCc3cc(F)cc(Cl)c3)C2=O)cc1 [B101, N-(3-Chloro-5-fluorobenzyl)-(S)-3-hydroxy-2-oxo-1-(4-sulfamoyl-phenyl)pyrrolidine-3-carboxamide] | 10 to 1000 nM
10 | COC(=O)CCc1cc(N2CCC(O)(C(=O)NCc3cc(F)cc(Cl)c3)C2=O)ccc1NC(=O)OC(C)(C)C (stereo not shown) [B105, Methyl 3-{2-tert-butoxy-carbonylamino-5-[3-(3-chloro-5-fluorobenzylcarbamoyl)-3-hydroxy-2-oxopyrrolidin-1-yl]-phenyl}propionate] | 10 to 1000 nM
11 | CC(C)(C)OC(=O)Nc1ccc(N2CCC(O)(C(=O)NCc3cc(F)cc(Cl)c3)C2=O)cc1CCC(=O)O (stereo not shown) [B106, 3-{2-tert-Butoxycarbonylamino-5-[3-(3-chloro-5-fluorobenzyl-carbamoyl)-3-hydroxy-2-oxo-pyrrolidin-1-yl]phenyl}propionic acid] | 1000 to 10000 nM

More lines, now with the values ahead:

Row | IC50 | SMILES
12 | > 10000 nM | CNC(=O)c1cc2cc(N3CC[C@@](O)(C(=O)NCc4cc(F)cc(Cl)c4)C3=O)ccc2[nH]1 [B102, N-Methyl-5-[(R)-3-(3-chloro-5-fluorobenzylcarbamoyl)-3-hydroxy-2-oxopyrrolidin-1-yl]-1H-indole-2-carboxamide]
13 | > 10000 nM | NC(=O)[C@@]1(O)CCN(c2ccc3c(c2)CCC(=O)N3)C1=O [B103, (S)-3-Hydroxy-2-oxo-1-(2-oxo-1,2,3,4-tetrahydroquinolin-6-yl)-pyrrolidine-3-carboxamide]
14 | 10 to 1000 nM | O=C(NCc1cc(F)cc(Cl)c1)C1(O)CCN(c2cnc3[nH]cc(C(F)(F)F)c3c2)C1=O (stereo not shown) [B104, N-(3-Chloro-5-fluorobenzyl)-3-hydroxy-2-oxo-1-(3-trifluoro-methyl-1H-pyrrolo[2,3-b]pyridin-5-yl)pyrrolidine-3-carboxamide]
15 | 10 to 1000 nM | NS(=O)(=O)c1cccc(N2CCC(O)(C(=O)NCc3cc(F)cc(Cl)c3)C2=O)c1 (stereo not shown) [B107, N-(3-Chloro-5-fluorobenzyl)-3-hydroxy-2-oxo-1-(3-sulfamoyl-phenyl)pyrrolidine-3-carboxamide]
16 | 10 to 1000 nM | NCCOCCOCCNC(=O)c1cc2cc(N3CC[C@](O)(C(=O)NCc4cc(F)cc(Cl)c4)C3=O)ccc2[nH]1 [B108, N-({2-[2-(2-Aminoethoxy)-ethoxy]ethyl})-5-[(S)-3-(3-chloro-5-fluorobenzylcarbamoyl)-3-hydroxy-2-oxopyrrolidin-1-yl]-1H-indole-2-carboxamide]
17 | 10 to 1000 nM | O=C1CCc2cc(N3CCC(O)(C(=O)NCc4cc(F)cc(Cl)c4)C3=O)c(F)cc2N1 (stereo not shown) [B109, N-(3-Chloro-5-fluorobenzyl)-1-(7-fluoro-2-oxo-1,2,3,4-tetrahydroquinolin-6-yl)-3-hydroxy-2-oxopyrrolidine-3-carboxamide]
18 | 10 to 1000 nM | O=C(NCCc1cc(F)cc(F)c1)[C@@]1(O)CCN(c2ccc3[nH]ccc3c2)C1=O [B110, N-[2-(3,5-Difluorophenyl)ethyl]-(S)-3-hydroxy-1-(1H-indol-5-yl)-2-oxopyrrolidine-3-carboxamide]
19 | 1000 to 10000 nM | O=C(NCCc1cc(F)cc(F)c1)[C@]1(O)CCN(c2ccc3[nH]ccc3c2)C1=O [B111, N-[2-(3,5-Difluorophenyl)ethyl]-(R)-3-hydroxy-1-(1H-indol-5-yl)-2-oxopyrrolidine-3-carboxamide]
20 | 10 to 1000 nM | O=C(c1cc2cc(N3CC[C@](O)(C(=O)NCc4cc(F)cc(Cl)c4)C3=O)ccc2[nH]1)N1CCOCC1 [B112, N-(3-Chloro-5-fluorobenzyl)-(S)-3-hydroxy-1-[2-(morpholine-4-carbonyl)-1H-indol-5-yl]-2-oxo-pyrrolidine-3-carboxamide]
21 | 10 to 1000 nM | NCCOCCNC(=O)c1cc2cc(N3CC[C@](O)(C(=O)NCc4cc(F)cc(Cl)c4)C3=O)ccc2[nH]1 [B113, N-[2-(2-Aminoethoxy)ethyl]-5-[(S)-3-(3-chloro-5-fluorobenzylcarbamoyl)-3-hydroxy-2-oxopyrrolidin-1-yl]-1H-indole-2-carboxamide]
22 | 10 to 1000 nM | O=C(c1cc2cc(N3CC[C@](O)(C(=O)NCc4cc(F)cc(Cl)c4)C3=O)ccc2[nH]1)N1CCC1 [B114, N-(3-Chloro-5-fluorobenzyl)-(S)-1-[2-(azetidine-1-carbonyl)-1H-indol-5-yl]-3-hydroxy-2-oxo-pyrrolidine-3-carboxamide]
23 | 10 to 1000 nM | NS(=O)(=O)c1ccc(N2CCC(O)(C(=O)NCc3cc(F)cc(Cl)c3)C2=O)cc1 (stereo not shown) [B115, N-(3-Chloro-5-fluorobenzyl)-3-hydroxy-2-oxo-1-(4-sulfamoyl-phenyl)pyrrolidine-3-carboxamide]
24 | 10 to 1000 nM | N#CCn1cc(N2CC[C@](O)(C(=O)NCc3cc(F)cc(Cl)c3)C2=O)cn1 [B116, N-(3-Chloro-5-fluorobenzyl)-(S)-1-(1-cyanomethyl-1H-pyrazol-4-yl)-3-hydroxy-2-oxopyrrolidine-3-carboxamide]
25 | > 10000 nM | N#CCn1cc(N2CC[C@@](O)(C(=O)NCc3cc(F)cc(Cl)c3)C2=O)cn1 [B117, N-(3-Chloro-5-fluorobenzyl)-(R)-1-(1-cyanomethyl-1H-pyrazol-4-yl)-3-hydroxy-2-oxopyrrolidine-3-carboxamide]

Reference: patent US10093623B2, “Cyclic amides as MetAP-2 inhibitors” (MERCK PATENT GmbH, priority 2012, dated 2018)
